Assay results taken from patent publication US20050181952A1, “Slow-release agrochemicals dispenser and method of use” (priority 2002, published 2005).

Assays:
Striga [1] = test: Field experiment Short Rains 2002: slow release formulations without free herbicide, Striga control; type: in vivo
Method: A solid coat of polylvinylpyrollidone (PVP) (avg. MW 90 Kd) was used to bind the various formulations to the maize seed. 90 mg of PVP mixed with 2.9 ml water was combined with various amounts of the slow release formulations described in Example 1 or with 36 mg dry imazapyr (acid form) or sodium pyrithiobac powder mixed thoroughly together and then with 144 maize seeds (to give a imazapyr coating of 0.25 mg a.e. imazapyr seed^−1). This is the equivalent of 13.25 g a.e. ha^−1, respectively, when planted in the field at 53,300 seeds ha^−1. The treated seeds were then planted in the field within 2 days of coating. All field experiments were conducted at the National Sugar Research Center (NRSC) of the Kenya Agricultural Research Institute (KARI) near Kibos (0°04′S, 34°48′, elevation 1214 m) in western Kenya. The soil is classified as a vetro-eutic planosol according to the FAO/UNESCO (1974) system. The fields used had previously been cropped to maize that was heavily infested with Striga, which matured and seeded the area. The experiments were carried out during October-January […]. Seasonal precipitation during that season was 550 mm. […] Maize stand counts were determined six weeks after planting. […] The number of flowering Striga plants and Striga seed capsules at twelve and fourteen weeks; adjusted grain yield to 15% moisture; and total maize shoot dry weight were all measured. […]

Striga [2] = test: Pot experiments, Kenya: watering regimes and efficacy of slow release formulations on Striga; type: in vivo; details: pots
Method: Formulations were prepared as outlined in Example 3 and applied to the seeds, without adding free imazapyr (as in Example 2) and planted in pots. 63 pots (10,380 cm^3) were set up, each with 8 kg soil (classified as a vetro-eutic planosol according to the FAO/UNESCO (1974) system) so that we had 21 pots per replication. Each pot was inoculated with 3,000 Striga and mixed thoroughly at a depth of 15 cm. The pots were watered and left for one week to allow Striga seeds to “pre-condition” for germination. Two IR-corn seeds were planted in each plot, each treated 0, 0.25, 0.5 acid equivalent mg imazapyr per pot, as the free acid of the herbicide, or in 0, 0.15, 0.3, acid equivalent mg imazapyr per pot DE-52 or Dowex 1 formulations. Each formulation treatment at each rate had three replicates at each simulated rainfall regime. Natural rain measurements were made. Rainfall was supplemented at 19, 28, and 56 mm of water applied twice weekly, less amount of natural rainfall, for three months to simulate seasonal rainfalls of 500, 750 and 1500 mm, respectively. Measurements of Striga emergence were made at biweekly intervals. Late season emergence of Striga was measured at 12 weeks after planting. […] At the medium and highest watering level, there was no control of Striga by the lowest free herbicide rates, whereas the slow release herbicide performed far better (Table 3).

## CC(C)C1(C)N=C(c2ncccc2C(=O)O)NC1=O (centres unmarked) [Imazapyr, imazapyr]
Striga [1]; imazapyr 0.25 mg/seed
  Striga emergence (m^−2) at 12 weeks: 2.1 m^−2
Striga [1]; imazapyr 0.5 mg/seed
  Striga emergence (m^−2) at 12 weeks: 0.7 m^−2
Striga [2]; High water (1500 mm total), imazapyr 0.25 mg/seed
  Late season Striga emergence 12 weeks (plants/m^2): 57 plants/m^2
Striga [2]; High water (1500 mm total), imazapyr 0.5 mg/seed
  Late season Striga emergence 12 weeks (plants/m^2): 11 plants/m^2
Striga [2]; Low water (500 mm total), imazapyr 0.25 mg/seed
  Late season Striga emergence 12 weeks (plants/m^2): 16 plants/m^2
Striga [2]; Low water (500 mm total), imazapyr 0.5 mg/seed
  Late season Striga emergence 12 weeks (plants/m^2): 3 plants/m^2
Striga [2]; Medium water (750 mm total), imazapyr 0.25 mg/seed
  Late season Striga emergence 12 weeks (plants/m^2): 33 plants/m^2
Striga [2]; Medium water (750 mm total), imazapyr 0.5 mg/seed
  Late season Striga emergence 12 weeks (plants/m^2): 7 plants/m^2
